Columns and labels:
[1] = biological target: Full-length PRMT5 enzyme co-expressed with His6-MEP50 (Homo sapiens (Human), UniProt O14744); test: PRMT5 Biochemical Assay; conditions: histone H4 derived peptide substrate, Transcreener EPIGEN methyltransferase assay, 4 hours at 37 degree Celsius
Experimental: Compounds of the invention may be tested for in vitro activity in the following assay: A histone H4 derived peptide is used as substrate (amino acid sequence: […]NH2). Full-length PRMT5 enzyme (NCBI Reference sequence NP_006100.2) was co-expressed with His6-MEP50 in insect cells and purified via Nickel immobilized metal affinity and gel filtration chromatography (“the enzyme”).
The 6 μL reactions are run in Greiner brand black 384-well low volume assay plates. All reactions contained assay buffer (phosphate buffered saline, 0.01% (v/v) Tween-20, 0.01% (w/v) albumin from chicken egg white, 1 mM Dithiothreitol, 1 μM peptide substrate, 1 μM S-Adenosyl methionine, and 15 ng/reaction enzyme, with the enzyme being omitted from negative control reactions. Compounds were added in a volume of 100 nL from dilution series prepared in DMSO, positive and negative control reactions receiving the same volume DMSO without compound. The plates were sealed with adhesive seals and incubated for 4 hours at 37 degree Celsius. Reaction progress was measured using the Transcreener™ EPIGEN methyltransferase assay (BellBrook Labs, Madison, Wis.) as recommended by the manufacturer. To each reaction 2 μL detection mix were added, containing coupling enzymes, fluorescence polarisation tracer, and AMP antibody. Plates were incubated for 90 minutes before being read on a PerkinElmer EnVision™ plate reader in fluorescence polarisation mode.

[2] = test system: symmetrical dimethylation of arginine (Di-Methyl Histone H4 Arginine 3) in TE11 cells; test: cells; conditions: Homo sapiens, TE-11, 72 h
Experimental: Compounds of the invention may be tested for potency to inhibit symmetrical dimethylation of arginine in the following assay:
The cell line TE11 was seeded at a density of 6,000 cells per well in 96 well optical quality tissue culture plates in DME medium and 10% foetal bovine serum, and allowed to adhere for 5 hours under standard culture conditions (37 degree Celsius, 5% CO2). […] After incubation for 72 hours, the cells were fixed with 3.7% formaldehyde in PBS for 30 minutes at room temperature, washed with phosphate buffer saline and blocked with Odyssey blocking buffer (LI-COR, Lincoln, Nebr.). Rabbit anti-Di-Methyl Histone H4 Arginine 3 specific antibody (Epigentek) in Odyssey blocking buffer was added and incubated for 14 hours at 4 degree Celsius.

Full-length PRMT5 enzyme co-expressed with His6-MEP50, sequence (O14744 whole entry): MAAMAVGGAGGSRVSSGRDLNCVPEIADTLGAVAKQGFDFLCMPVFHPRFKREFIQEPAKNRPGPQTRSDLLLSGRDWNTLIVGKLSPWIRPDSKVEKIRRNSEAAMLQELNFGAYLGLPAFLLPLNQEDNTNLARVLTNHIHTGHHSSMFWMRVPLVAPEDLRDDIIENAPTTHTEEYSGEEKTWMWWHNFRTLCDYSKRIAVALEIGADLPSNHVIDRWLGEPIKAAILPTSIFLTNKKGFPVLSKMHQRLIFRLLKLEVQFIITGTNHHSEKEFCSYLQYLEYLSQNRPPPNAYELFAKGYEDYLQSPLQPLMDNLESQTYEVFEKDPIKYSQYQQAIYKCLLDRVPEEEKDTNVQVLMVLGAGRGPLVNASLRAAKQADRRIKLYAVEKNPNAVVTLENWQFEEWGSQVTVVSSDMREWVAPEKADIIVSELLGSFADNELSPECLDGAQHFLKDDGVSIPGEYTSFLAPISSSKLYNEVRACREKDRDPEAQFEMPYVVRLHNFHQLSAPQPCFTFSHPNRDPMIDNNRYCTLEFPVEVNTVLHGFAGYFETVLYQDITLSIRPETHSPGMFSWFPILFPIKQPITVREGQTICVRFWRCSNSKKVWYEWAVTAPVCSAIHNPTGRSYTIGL
Full-length PRMT5 enzyme co-expressed with His6-MEP50, sequence (Q9BQA1 whole entry partner): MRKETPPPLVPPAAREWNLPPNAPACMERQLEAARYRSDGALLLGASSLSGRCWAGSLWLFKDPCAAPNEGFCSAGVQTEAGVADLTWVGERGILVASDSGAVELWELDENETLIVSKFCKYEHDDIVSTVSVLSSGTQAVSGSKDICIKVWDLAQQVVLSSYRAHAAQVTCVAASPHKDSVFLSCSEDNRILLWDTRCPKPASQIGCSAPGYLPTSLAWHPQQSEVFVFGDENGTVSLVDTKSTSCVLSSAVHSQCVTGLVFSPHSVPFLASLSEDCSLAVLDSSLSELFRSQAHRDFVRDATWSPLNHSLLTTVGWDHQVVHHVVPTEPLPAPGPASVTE

Cc1nn(CC(O)CNC2Cc3ccccc3C2)c(=O)c2ccccc12 (centres unmarked) [Compound 1, 2-(3-((2,3-Dihydro-1H-inden-2-yl)amino)-2-hydroxypropyl)-4-methylphthalazin-1(2H)-one] was tested, and the IC50 [1] was 4530 nM.

Cc1nn(C[C@@H](O)CNC2Cc3ccccc3C2)c(=O)c2ccc(C(=O)N3C4CCC3COC4)cc12 [Compound 2, 6-(3-Oxa-8-azabicyclo[3.2.1]octane-8-carbonyl)-2-((S)-3-((2,3-dihydro-1H-Inden-2-yl)amino)-2-hydroxypropyl)-4-methylphthalazin-1(2H)-one] showed an IC50 [1] of 170 nM and an IC50 [2] of 18 nM.

In the case of CCc1nn(C[C@@H](O)CNC2Cc3ccccc3C2)c(=O)c2ccc(C(=O)N3C4CCC3COC4)cc12 [Compound 3, 6-(3-Oxa-8-azabicyclo[3.2.1]octane-8-carbonyl)-2-((S)-3-((2,3-dihydro-1H-Inden-2-yl)amino)-2-hydroxypropyl)-4-ethylphthalazin-1(2H)-one], the IC50 [1] is reported as 30 nM and the IC50 [2] is reported as 1.9 nM.

Reference: patent publication US10961256B2, “PRMT5 inhibitors” (priority 2016, dated 2021)
